Test results as given in the supplement of paper PMC10307832.

Columns and labels:
Assay in all cases: relative viability (nuclei count vs DMSO), 5 days (fraction); higher = more cells survive
BMX-IN-1 + Palbociclib = compound: C=CC(=O)Nc1cc(-n2c(=O)ccc3cnc4ccc(-c5ccc(NS(C)(=O)=O)cc5)cc4c32)ccc1C [BMX-IN-1] + CC(=O)c1c(C)c2cnc(Nc3ccc(N4CCNCC4)cn3)nc2n(C2CCCC2)c1=O [Palbociclib] (partner 0.5 µM)
Method in brief: (§1)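 Lung cancer cell lines in 1536-well plates got either a single drug or a fixed anchor-drug dose together with five library-drug doses (not always all listed) in √10 steps, by pin tool, on the day after seeding. Nuclei were counted after 5 days, and relative viability is the treated-to-vehicle ratio of nuclei counts. Values are medians of duplicate plates.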

BMX-IN-1 + Navitoclax = compound: C=CC(=O)Nc1cc(-n2c(=O)ccc3cnc4ccc(-c5ccc(NS(C)(=O)=O)cc5)cc4c32)ccc1C [BMX-IN-1] + CC1(C)CCC(c2ccc(Cl)cc2)=C(CN2CCN(c3ccc(C(=O)NS(=O)(=O)c4ccc(N[C@H](CCN5CCOCC5)CSc5ccccc5)c(S(=O)(=O)C(F)(F)F)c4)cc3)CC2)C1 [Navitoclax] (partner 0.5 µM)
Method in brief: as §1

BMX-IN-1 + Pictilisib = compound: C=CC(=O)Nc1cc(-n2c(=O)ccc3cnc4ccc(-c5ccc(NS(C)(=O)=O)cc5)cc4c32)ccc1C [BMX-IN-1] + CS(=O)(=O)N1CCN(Cc2cc3nc(-c4cccc5[nH]ncc45)nc(N4CCOCC4)c3s2)CC1 [Pictilisib] (partner 1 µM)
Method in brief: as §1

PAC-1 + Phenformin = compound: C=CCc1cccc(/C=N/NC(=O)CN2CCN(Cc3ccccc3)CC2)c1O [PAC-1] + N=C(N)NC(=N)NCCc1ccccc1 [Phenformin] (partner 250 µM)
Method in brief: as §1

SK-MES-1 was tested, and the relative viability (BMX-IN-1 + Palbociclib; first compound 0.02 µM) was 0.303, the relative viability (BMX-IN-1 + Palbociclib; first compound 0.2 µM) was 0.333 and the relative viability (BMX-IN-1 + Palbociclib; first compound 0.6325 µM) was 0.355. The relative viability (BMX-IN-1 + Palbociclib; first compound 2 µM) was 0.271, the relative viability (BMX-IN-1 + Navitoclax; first compound 0.02 µM) was 1.45 and the relative viability (BMX-IN-1 + Navitoclax; first compound 0.2 µM) was 1.45. It also gave a relative viability (BMX-IN-1 + Navitoclax; first compound 0.6325 µM) of 1.23, a relative viability (BMX-IN-1 + Navitoclax; first compound 2 µM) of 1.1 and a relative viability (BMX-IN-1 + Pictilisib; first compound 0.02 µM) of 0.345. It also gave a relative viability (BMX-IN-1 + Pictilisib; first compound 0.2 µM) of 0.383, a relative viability (BMX-IN-1 + Pictilisib; first compound 0.6325 µM) of 0.414 and a relative viability (BMX-IN-1 + Pictilisib; first compound 2 µM) of 0.344. For the same cell line, the relative viability (PAC-1 + Phenformin; first compound 0.02 µM) was 0.638, the relative viability (PAC-1 + Phenformin; first compound 0.06325 µM) was 0.661 and the relative viability (PAC-1 + Phenformin; first compound 0.2 µM) was 0.381. The relative viability (PAC-1 + Phenformin; first compound 2 µM) was 0.645.
